# From patent US4720489A, “Hair growth modification with ornithine decarboxylase inhibitors” (priority 1984, dated 1988)
# Columns and labels:
# [1] = tested on: androgen-mediated hair growth in male hamsters (flank organ hair mass); assay: inhibition of androgen-mediated hair growth in male hamsters following topical application for 21 consecutive days (flank organ hair mass); assay type: in vivo, hamster; settings: 500 micrograms in 10 microliters 70% ethanol, regrowth during final ten days
# Protocol: Five hundred micrograms of the compound in ten microliters of 70% ethanol was applied topically for 21 consecutive days. Hair mass changes were determined by comparing the regrowth of hair during the final ten days of treatment. […] Furthermore, the magnitude of hair mass inhibition in the hamsters treated with the ODC inhibitor (60%) approached that observed in 21-day castrated hamsters (78%).
# [2] = tested on: Flank Organ Hair Mass; assay: similar series of experiments comparing a variety of compositions, flank organ hair mass (Table III); assay type: in vivo, hamster; design: Flank Organ Hair Mass, Untreated / Flank Organ Hair Mass, Treated: unit not given here
# Protocol: Additional experiments were conducted to test topical regimens composed of a combination of 2(difluoromethyl)-2,5-diaminopentanoic acid along with antiandrogens. […] In each case, hamsters were treated for 15 days (Monday-Friday) during a 21-day interval. Flank organ hairs were epilated on the first day of treatment and re-epilated on the sixth day of treatment. The mass of flank organ hair represents the regrowth during the final 14 days of the 21-day interval.
# [3] = tested on: flank organ hair mass in adult intact male hamsters; assay: efficacy of topical compositions in reducing flank organ hair mass in adult intact male hamsters (Tables I and II); assay type: in vivo, hamster; settings: 15 days (Mon-Fri) in 21-day interval, versus vehicle controls
# Protocol: Summarized below in Tables I and II are the results of two experiments comparing the efficacy of several compositions in reducing the flank organ hair mass in adult intact male hamsters. In each case, hamsters were treated for 15 days (Monday-Friday) during a 21-day interval. Flank organ hairs were epilated on the first day of treatment and re-epilated on the sixth day of treatment. […] The results for percent inhibition shown below are based upon comparisons between the hair mass values of hairs harvested from treated flank organs of experimental animals and those obtained from vehicle-treated control animals.
# [4] = tested on: ornithine decarboxylase (ODC), flank organ; assay: flank organ ODC activity after topical application for 21 consecutive days; assay type: in vivo, hamster; settings: 500 micrograms in 10 microliters 70% ethanol, versus hamsters castrated for 21 days
# [5] = tested on: brain 4-aminobutyric acid levels; settings: transformation catalyzed by mitochondrial monoamine oxidase; known secondary pharmacological effect; cited from earlier work
# [6] = 5 micrograms per square centimeter
# [7] = 50 micrograms per square centimeter
# [8] = 250 micrograms per square centimeter
# [9] = 500 micrograms per square centimeter
# [10] = Table II, 500 micrograms per square centimeter
smiles,measurement,setting,value
"NCCCC(N)(C(=O)O)C(F)F (stereo not shown) [2(difluoromethyl)-2,5-diaminopentanoic acid]",magnitude of hair mass inhibition,[1],60%
same,% Inhibition (flank organ hair mass),[2]; [6],2%
same,% Inhibition (flank organ hair mass),[2]; [7],7%
same,% Inhibition (flank organ hair mass),[2]; [8],24%
same,% Inhibition (flank organ hair mass),[2]; [9],33%
same,"Flank Organ Hair Mass, Treated",[2]; [6],3.20
same,"Flank Organ Hair Mass, Treated",[2]; [7],2.85
same,"Flank Organ Hair Mass, Treated",[2]; [8],2.29
same,"Flank Organ Hair Mass, Treated",[2]; [9],1.81
same,"Flank Organ Hair Mass, Untreated",[2]; treatment group 5 micrograms per square centimeter,3.26
same,"Flank Organ Hair Mass, Untreated",[2]; treatment group 50 micrograms per square centimeter,3.05
same,"Flank Organ Hair Mass, Untreated",[2]; treatment group 250 micrograms per square centimeter,3.00
same,"Flank Organ Hair Mass, Untreated",[2]; treatment group 500 micrograms per square centimeter,2.71
same,% Inhibition (flank organ hair mass),"[3]; Table I, 500 micrograms per square centimeter",46%
same,% Inhibition (flank organ hair mass),[3]; [10],41%
same,flank organ ODC activity,[4],reduced to levels found in hamsters castrated for 21 days
"C#CC(N)CCCN (stereo not shown) [5-hexyne-1,4-diamine]",brain 4-aminobutyric acid levels,[5],increases in brain 4-aminobutyric acid levels
"CC(=O)O[C@]1(C(C)=O)CC[C@H]2[C@@H]3C=C(Cl)C4=CC(=O)CC[C@]4(C)[C@H]3CC[C@@]21C [Chloromadinone acetate, chlormadinone acetate]",% Inhibition (flank organ hair mass),[3]; [10],41%
"CC(=O)[C@H]1CC[C@H]2[C@@H]3CCC4=CC(=O)CC[C@]4(C)[C@H]3CC[C@]12C [Progesterone, progesterone]",% Inhibition (flank organ hair mass),"[3]; Table I, 1000 micrograms per square centimeter",50%
